# Measured values reported in US20050038047A1, “Azaquinazoline derivatives” (priority 2003, published 2005).
# Molecular target: T1, rat mGluR1a receptor (Rattus norvegicus, UniProt P23385)
# T1 construct: expressed in transfected cells; host or cells: Chinese Hamster Ovary cells (CHO-1a), stably transfected
# Assay: mGluR1 assay: antagonism of glutamate-evoked calcium internalisation in CHO-1a cells (FLIPr)
# Format: cell-based
# Conditions: CHO cells stably transfected with rat mGluR1a; 40 μM glutamate challenge; IC50 values converted to modified Ki values; read-out: binding affinities (mGluR1 assay)
# Procedure: The ability of compounds of formula (I) to antagonise glutamate-evoked increases in calcium internalisation in an mGluR1 expressing cell line may be measured using the assay described below.
# Chinese Hamster Ovary cells stably-transfected with the rat mGluR1a receptor (CHO-1a) were used in the assay. CHO-1a cells were seeded onto shallow 96 well plates and assayed at a confluency of 80-90%. Cells were loaded with Fluo-3-AM dye (8.8 μM final concentration; excitation 488 nm, emission 530 nm) in the presence of probenecid (2.5 mM), for 45-90 minutes at 37° C., after which time excess dye was removed by washing. The cell plate was then loaded onto a fluorometric imaging plate reader (FLIPr, Molecular Devices). Baseline readings were measured for 30 seconds. Test compounds were added by the FLIPr and allowed to equilibrate for 5 minutes before the addition of a 40 μM glutamate challenge (this was the approximate ED90 for glutamate against the receptor expressed in these cells). Readings were taken for a further 2 minutes. Measurements were made of the area of peak obtained in response to the glutamate addition and inhibition curves were constructed. Glutamate dose-response curves were included on each experimental day to allow IC50 values to be converted to modified Ki values.
# T1 sequence (P23385 19-1199): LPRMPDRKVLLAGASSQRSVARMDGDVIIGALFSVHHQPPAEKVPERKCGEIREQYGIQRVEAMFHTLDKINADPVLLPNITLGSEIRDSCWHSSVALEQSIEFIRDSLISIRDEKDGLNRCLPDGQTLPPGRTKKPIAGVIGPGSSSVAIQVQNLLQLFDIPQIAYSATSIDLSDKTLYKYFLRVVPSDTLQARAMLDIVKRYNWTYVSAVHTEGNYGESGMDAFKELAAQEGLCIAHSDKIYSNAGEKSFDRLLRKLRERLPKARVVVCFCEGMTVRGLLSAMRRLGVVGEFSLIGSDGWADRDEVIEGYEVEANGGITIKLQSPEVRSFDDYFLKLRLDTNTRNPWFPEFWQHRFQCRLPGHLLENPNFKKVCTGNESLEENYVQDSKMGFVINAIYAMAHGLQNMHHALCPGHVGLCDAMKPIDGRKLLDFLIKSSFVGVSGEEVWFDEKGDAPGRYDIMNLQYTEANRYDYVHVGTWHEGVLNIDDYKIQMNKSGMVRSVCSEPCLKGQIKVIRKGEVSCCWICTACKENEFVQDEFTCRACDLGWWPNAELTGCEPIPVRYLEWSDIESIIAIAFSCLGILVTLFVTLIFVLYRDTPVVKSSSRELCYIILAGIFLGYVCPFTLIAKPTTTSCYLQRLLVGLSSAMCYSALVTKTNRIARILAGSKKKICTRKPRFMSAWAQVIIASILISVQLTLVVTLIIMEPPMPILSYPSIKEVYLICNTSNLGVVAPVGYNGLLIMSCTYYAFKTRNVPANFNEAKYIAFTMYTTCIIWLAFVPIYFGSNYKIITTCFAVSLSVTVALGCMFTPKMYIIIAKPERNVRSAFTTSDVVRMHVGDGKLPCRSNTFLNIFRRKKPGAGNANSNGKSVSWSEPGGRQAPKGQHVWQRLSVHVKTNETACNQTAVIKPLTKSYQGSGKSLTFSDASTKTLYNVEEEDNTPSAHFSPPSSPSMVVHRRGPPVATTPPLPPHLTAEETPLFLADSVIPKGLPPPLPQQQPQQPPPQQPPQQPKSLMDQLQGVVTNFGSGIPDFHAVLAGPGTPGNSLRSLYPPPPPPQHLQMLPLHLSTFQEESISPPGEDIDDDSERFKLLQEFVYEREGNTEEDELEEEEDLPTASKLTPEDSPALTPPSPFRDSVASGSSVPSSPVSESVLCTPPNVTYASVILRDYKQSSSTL
smiles,measurement,value
"OC1CCN(c2cc3c(NC4CCCCCC4)ncnc3cn2)CC1 [Example 1, 1-(4-Cycloheptylamino-pyrido[3,4-d]pyrimidin-6-yl)-piperidin-4-ol]",Ki,3 nM
OCCCNc1cc2c(NC3CCCCCC3)ncnc2cn1 [Example 3],Ki,2 nM
